# Assay results from PMC7901654, “Bioisosteric Discovery of NPA101.3, a Second-Generation RET/VEGFR2 Inhibitor Optimized for Single-Agent Polypharmacology” (Journal of Medicinal Chemistry, 2020).
# Assays:
# [1] = tested on: TT (RET/C634W), MZ-CRC-1 (RET/M918T), TPC-1 (CCDC6-RET); test: RET autophosphorylation and SHC/MAPK signalling in RET mutant human cancer cell lines; assay type: cell-based; conditions: 2 h treatment
# Protocol: NPA101.3 inhibited RET autophosphorylation and signaling along the SHC/MAPK pathway in human cancer cell lines endogenously expressing RET oncogenic variants, including MTC cell lines, TT (RET/C634W) and MZ-CRC-1 (RET/M918T), and PTC cell line TPC-1 (CCDC6-RET); in the lung adenocarcinoma cell line Lc-2/ad (CCDC6-RET), only RET and SHC (but not MAPK) dephosphorylation was detectable (Figure S4).
# Protein lysates were prepared according to standard procedures. Briefly, cells were lysed in a buffer containing 50 mM N-2-hydroxyethylpiperazine-N′-2-ethanesulfonic acid (HEPES; pH 7.5), 1% (v/v) Triton X-100, 150 mM NaCl, 5 mM EGTA, 50 mM NaF, 20 mM sodium pyrophosphate, 1 mM sodium vanadate, 2 mM phenylmethanesulfonyl fluoride (PMSF), and 1 μg/mL aprotinin. Lysates were clarified by centrifugation at 10000g for 15 min. […] Immune complexes were detected with the enhanced chemiluminescence kit (Amersham Pharmacia Biotech, Little Chalfont, U.K.). Anti-phospho-SHC (#Y317), which recognizes SHC protein when phosphorylated on Y317, was from Upstate Biotechnology Inc. (Lake Placid, NY). Anti-SHC (H-108) was from Santa Cruz Biotechnology (Santa Cruz, CA). Anti-MAPK (9101) and anti-phospho-MAPK (9102), specific for p42/44MAPK (ERK1/2) phosphorylated on Thr202/Tyr204, antibodies were from Cell Signaling Technologies (Danvers, MA). […]
# [2] = tested on: RET and VEGFR2 in NIH3T3 RET/C634Y tumours; test: In vivo target (RET and VEGFR2) inhibition, Western blot of established tumours; set-up: species or system mouse; conditions: 3 mg/kg/day p.o. for 2 days, harvested 3 h after last dose
# Protocol: In vivo target (RET and VEGFR2) inhibition was studied by treating animals grafted with NIH3T3 RET/C634Y cells at different doses (0.3, 1, or 3 mg/kg/day p.o.) of NPA101.3 for 2 days and then performing Western blot analysis on protein extracts. […] Then, to determine antitumorigenic activity and to better distinguish RET- and VEGFR2-mediated effects, we tested NPA101.3 in nude mice transplanted with NIH3T3 cells transformed by either RET/C634Y or HRAS/G12V. Before tumors appeared, animals were treated daily with NPA101.3 (1.0, 3.0, or 10.0 mg/kg/day) or left untreated. […] Still, VEGFR2 inhibition was detected also in RAS-driven tumors, an effect that might explain the, albeit reduced, effect of the drug on their growth (Figure S13). Importantly, as predicted, no trace of NPA101.3 demethyl metabolites was detected after 1 or 4 h from oral dosing in mice (Figure S14).
# Supplementary Figure S11: In vivo target inhibition of NPA101.3 in nude mice implanted with cells transformed by RET/C634Y […] NIH3T3 RET/C634Y cells (2 x 105) were inoculated subcutaneously into the right and left dorsal portions of nude mice. When tumours reached approximately ~200 mm 3, mice (2 mice/dose) were treated by oral gavage with 3 doses (0, 24, 48 h) of the compound (0.3, 1 and 3 mg/Kg) or left untreated (NT); proteins were harvested 3 h after the last dose. […]
smiles,measurement,setting,value
CC(C)(C)c1cc(NC(=O)Cc2ccc(-n3cnc4cc(-c5ccc(S(C)(=O)=O)cc5)ccc43)cc2)no1 [NPA101.3],RET autophosphorylation and signaling along the SHC/MAPK pathway,[1],inhibited
same,RET autophosphorylation and signaling and VEGFR2 phosphorylation in tumours,[2],strongly inhibited
